“Also recorded” adds a separate entry of the source. Where two headings read alike, the source gives them in different places.
How the values were obtained:
Xenopus embryos = settings: for Lethality: — = no stage of lethality given; for Embr. phen.: embryonic phenotype in the primary screen; for Type of edema Ventral: ‡ = edemas also detected in the gut
Method: 10-μl aliquots of the chemicals were transferred from the mother plates with a liquid handling robot (Aquarius, Tecan) into 96-well tissue culture plates to generate diluted stock plates (2 mM in DMSO; 50 μl final volume). […] Once embryos reached stage 31 (37 hpf), 10-μl aliquots of the diluted chemicals were added to the wells. […] Negative control wells contained embryos in screening medium and 0.1×MMR only. Embryos were treated with the chemicals in a humidified incubator at 23° C. over a timeframe of 4 days. Embryos were manually scored for the presence of edema or other morphological phenotypes using a teaching dissecting microscope (SV6; Carl Zeiss). Two investigators performed separately the scoring daily at stages 39 (56 hpf), 41 (76 hpf), 45 (98 hpf), and 47 (120 hpf). Dead embryos were removed and 100 μl of water was added daily to each well to compensate for fluid evaporation. […] For imaging at the end of the experiments. Xenopus tadpoles were anesthetized with 0.05% tricaine (Sigma #A5040) in 0.1×MMR. Images were captured using a stereomicroscope (SteREO Lumar V12; Carl Zeiss) equipped with a digital camera (AxioCam Color; Carl Zeiss).
Xenopus late tailbud embryos at stage 31 (37 hpf) were selected for compound treatment. […] Embryos were arrayed into 48-well dishes (five per well) and treated with test compounds at a concentration of 20 μM in the presence of 1% DMSO. […] All 48-well dishes also contained replicates of negative controls (1% DMSO). Embryos were monitored daily over a period of four days for edema formation. In addition, drug-induced lethality and other externally visible phenotypes were scored. On average, 320 compounds were screened per week.

[1] = test system: blood vessel development and/or lymphangiogenesis in Xenopus embryos; type: in vivo, Xenopus laevis; settings: for ISV phenotype: intersomitic vessels; for ISV phenotype / PCV phenotype / VVN phenotype / Blood vessel phenotype / ALH phenotype / ALS phenotype / PLV phenotype: Xenopus embryos; for PCV phenotype: posterior cardinal vein; for VVN phenotype: vitelline vein network; for lymph vessel development phenotype (vegfr3 expression, in words): 20 μM from stage 31, fixed at stage 42; for ALH phenotype: anterior lymph heart; for ALS phenotype: anterior lymph sac; for PLV phenotype: posterior lymph vessels
Method: All chemicals were purchased from Sigma and 10-mM stock solutions in DMSO were prepared. Chemicals were used at a final concentration of 20 μM in screening medium to treat homozygous albino Xenopus embryos, which lack natural pigmentation. Chemical treatments of embryos (n=7 per well) was initiated at stage 31 (37 hpf) and terminated at stages 35/36 (50 hpf) or 42 (80 hpf). Embryos were fixed in 4% paraformaldehyde and processed for whole mount in situ hybridization.
Where albino embryos were used, the bleaching step was omitted. Semi-automated whole mount in situ hybridizations were performed using the Biolane HTI machine (Hölle & Hüttner AG, Germany). […] Images were captured using a stereomicroscope (SteREO Lumar V12; Carl Zeiss) equipped with a digital camera (AxioCam Color; Carl Zeiss). Composite figures were organized and labeled using Adobe Photoshop CS2 and Adobe Illustrator CS software.
Edema formation or late-stage lethality may result from excretory system defects, (cardio)vascular and/or lymphatic vascular pathologies. […] Embryos were fixed for in situ hybridization either at stage 35/36 to analyze vasculogenesis and intersomitic vein angiogenesis defects or at stage 42 to evaluate possible defects in lymph vessel development (FIGS. 3-5).

[2] = compounds causing lethality, 20 μM, 1% DMSO, treatment from stage 31, Nieuwkoop & Faber stage
[3] = compounds causing edema, 20 μM, 1% DMSO, treatment from stage 31, scored to stage 47
[4] = onset of edema, 20 μM, 1% DMSO, treatment from stage 31, Nieuwkoop & Faber stage
[5] = compounds causing cytotoxicity, 20 μM, 1% DMSO, treatment from stage 31, Nieuwkoop & Faber stage
[6] = onset of other phenotypic defects, 20 μM, 1% DMSO
[7] = onset of pigmentation defects, 20 μM, 1% DMSO

In the case of `Clc1ccc(C(c2ccc(Cl)cc2)n2cc[n+](CC(OCc3ccc(Cl)cc3Cl)c3ccc(Cl)cc3Cl)c2)cc1` (centres unmarked) [Calmidazolium chloride], the “Lethality (NF)” value (Xenopus embryos; [2]) is reported as 37/38, the “blood vessel development phenotype (apj expression, in words)” value ([1]; 20 μM from stage 31, fixed at stage 35/36) is reported as “promoting ectopic, premature angiogenesis; also recorded: ectopic sprouting phenotype was even more pronounced” and the ISV phenotype [1] is reported as “ectopic”. The PCV phenotype [1] was “normal” and the VVN phenotype [1] was “hyperplastic”.

`Cc1cc(N)c2ccccc2[n+]1CCCCCCCCCC[n+]1c(C)cc(N)c2ccccc21.[Cl-].[Cl-]` [Dequalinium dichloride, 1,1′-Decamethylenebis(4-aminoquinaldinium) dichloride] was tested, and the “Lethality (NF)” value (Xenopus embryos; [3]) was 39 NF, the “Type of edema Pericordial” value (Xenopus embryos; embryonic stage) was 39 embryonic stages according to Nieuwkoop and Faber (NF) and the Lethality (Xenopus embryos; embryonic stage) was 39 embryonic stages according to Nieuwkoop and Faber (NF). The “lymph vessel development phenotype (vegfr3 expression, in words)” value [1] was “poorly developed, stunted lymphatics emerging from the ALS and ALH and hypoplastic PLV”, the Blood vessel phenotype [1] was “normal” and the ALH phenotype [1] was “stunted”. For the same compound, the ALS phenotype [1] was “stunted” and the PLV phenotype [1] was “hypoplastic”.

`Cc1ccc(Cl)c(Nc2ccccc2C(=O)[O-])c1Cl.[Na+]` [Meclotenamic acid sodium] was tested, and the Embr. phen. (Xenopus embryos) was “EDE”, the ISV phenotype [1] was “impaired” and the PCV phenotype [1] was “hypoplastic”. The VVN phenotype [1] was “hypoplastic”.

For `CC[C@H](C)C(=O)O[C@H]1CCC=C2C=C[C@H](C)[C@H](CC[C@@H]3C[C@@H](O)CC(=O)O3)[C@H]21` [Mevastatin], the “Lethality (NF)” value (Xenopus embryos; [3]) was 45 NF, the Embr. phen. (Xenopus embryos) was “EDE” and the “Type of edema Pericordial” value (Xenopus embryos; embryonic stage) was 35/36. For the same compound, the Lethality (Xenopus embryos; embryonic stage) was 45 embryonic stages according to Nieuwkoop and Faber (NF), the “Type of edema Ventral” value (Xenopus embryos; embryonic stage) was 41/42 and the “Onset (NF)” value (Xenopus embryos; [4]) was 35/36. For the same compound, the “lymph vessel development phenotype (vegfr3 expression, in words)” value [1] was “lymphangiogenesis was largely suppressed”, the Blood vessel phenotype [1] was “normal” and the ALH phenotype [1] was “impaired”. For the same compound, the ALS phenotype [1] was “impaired” and the PLV phenotype [1] was “hypoplastic”.

In the case of `O=C(c1cc(O)c(O)c([N+](=O)[O-])c1)c1ccccc1F` [Ro 41-0960, 2′-Fluoro-3,4-dihydroxy-5-nitrobenzophenone], the “Lethality (NF)” value (Xenopus embryos; [5]) is reported as 33/34.

For `C=C(C)[C@H]1Cc2c(ccc3c2O[C@@H]2COc4cc(OC)c(OC)cc4[C@@H]2C3=O)O1` [Rotenone], the “Lethality (NF)” value (Xenopus embryos; [5]) was 32 NF.

In the case of `CC(=O)c1c(O)c(C)c(O)c(Cc2c(O)c3c(c(C(=O)/C=C/c4ccccc4)c2O)OC(C)(C)C=C3)c1O` [Rottlerin], the “Lethality (NF)” value (Xenopus embryos; [5]) is reported as 32 NF.

For `CC#CCOC(=O)c1c(C)nc2sc3c(c2c1N)CCC(O)C3` (centres unmarked) [SB 205384, 4-Amino-7-hydroxy-2-methyl-5,6,7,8-tetrahydrobenzo[b]thieno[2,3-b]pyridine-3-carboxylic acid but-2-ynyl ester], the “Lethality (NF)” value (Xenopus embryos; compounds causing other phenotypic defects, 20 μM, scored to stage 47) was 46 NF and the “Onset (NF)” value (Xenopus embryos; [6]) was 40 NF.

With `COc1ccc(CCCOC(Cn2ccnc2)c2ccc(OC)cc2)cc1.Cl` (stereo not drawn) [SKF 96365, 1-(beta-[3-(4-Methoxyphenyl)propoxy]-4-methoxyphenethyl)-1H-imidazole hydrochloride] the “Lethality (NF)” value (Xenopus embryos; [3]) was 41/42, the “Type of edema Pericordial” value (Xenopus embryos; embryonic stage) was 39 embryonic stages according to Nieuwkoop and Faber (NF) and the “Type of edema Proctodeal” value (Xenopus embryos; embryonic stage) was 40 embryonic stages according to Nieuwkoop and Faber (NF). The Lethality (Xenopus embryos; embryonic stage) was 41/42 and the “Type of edema Ventral” value (Xenopus embryos; embryonic stage) was 40 embryonic stages according to Nieuwkoop and Faber (NF).

In the case of `O=C(O)c1ccccc1Nc1cccc(OCc2ccc3ccccc3n2)c1` [SR 2640, 2-[[3-(2-Quinolinylmethoxy)phenyl]amino]-benzoic acid], the “Lethality (NF)” value (Xenopus embryos; [5]) is reported as 32 NF.

With `C[n+]1cc2c3c(ccc2c2ccc4cc5c(cc4c21)OCO5)OCO3.[Cl-]` [Sanguinarine chloride, 13-Methyl-[1,3]benzodioxolo[5,6-c]-1,3-dioxolo[4,5-i]phenanthridinium chloride] the “Lethality (NF)” value (Xenopus embryos; [5]) was 32 NF.

With `CCN1/C(=C/C(C)=O)Sc2ccc(OC)cc21` [TG003, (Z)-1-(3-Ethyl-5-methoxy-2,3-dihydrobenzothiazol-2-ylidene)-propan-2-one] the “Lethality (NF)” value (Xenopus embryos; [2]) was 40 NF.

`C/C(=C\c1ccc(C(=O)O)cc1)c1ccc2c(c1)C(C)(C)CCC2(C)C` [TTNPB] was tested, and the “Lethality (NF)” value (Xenopus embryos; [3]) was 45 NF, the “Type of edema Proctodeal” value (Xenopus embryos; embryonic stage) was 41/42 and the “Type of edema Pronephric” value (Xenopus embryos; embryonic stage) was 39 embryonic stages according to Nieuwkoop and Faber (NF). For the same compound, the “Type of edema Cerebral” value (Xenopus embryos; embryonic stage, + = cerebral edema extending dorso-anteriorly and displacing the eyes) was 41/42+, the Lethality (Xenopus embryos; embryonic stage) was 45 embryonic stages according to Nieuwkoop and Faber (NF) and the “Type of edema Ventral” value (Xenopus embryos; embryonic stage) was 41/42. The “Onset (NF)” value (Xenopus embryos; [4]) was 39 NF.

With `C/C=C(/C)C(=O)O[C@H]1C(C)=C2[C@H]([C@@H]1OC(=O)CCCCCCC)[C@@](C)(OC(C)=O)C[C@H](OC(=O)CCC)[C@@]1(O)[C@H]2OC(=O)[C@@]1(C)O` [Thapsigargin] the “Lethality (NF)” value (Xenopus embryos; [5]) was 32 NF.

With `CC(C)(C)c1cc(C=C(C#N)C#N)cc(C(C)(C)C)c1O` [Tyrphostin A9, [[3,5-bis(1,1-Dimethylethyl)-4-hydroxyphenyl]methylene]-propanedinitrile] the “Lethality (NF)” value (Xenopus embryos; [5]) was 32 NF.

With `CC(C)(C)c1cc(C=C(C#N)C(N)=S)cc(C(C)(C)C)c1O` [Tyrphostin AG 879, alpha-cyano-(3,5-di-t-butyl-4-hydroxy)thiocinnamide] the “Lethality (NF)” value (Xenopus embryos; [5]) was 32 NF.

For `C#C[C@]1(O)CC[C@H]2[C@@H]3CCC4=Cc5nc6nc7ccccc7n6cc5C[C@]4(C)[C@H]3CC[C@@]21C` [WIN 62,577, 17-beta-Hydroxy-17-alpha-ethynyl-delta-4-androstano(3,2-b)pyrimido(1,2-a)benzimidazole], the “Lethality (NF)” value (Xenopus embryos; compounds causing pigmentation defects, 20 μM, scored to stage 47) was 42 NF and the “Onset (NF)” value (Xenopus embryos; [7]) was 33/34.

In the case of `COC[C@H]1OC(=O)c2coc3c2[C@@]1(C)C1=C(C3=O)[C@@H]2CCC(=O)[C@@]2(C)C[C@H]1OC(C)=O` [Wortmannin from Penicillium funiculosum, Wortmannin], the “Lethality (NF)” value (Xenopus embryos; [5]) is reported as 33/34.

In the case of `C[C@]12CC[C@@H]3c4ccc(O)cc4CC[C@H]3[C@@H]1CC[C@@H]2O` [beta-Estradiol], the “Type of edema Periocular” value (Xenopus embryos; embryonic stage, * = causing bulging eyes, # = bilateral, causing narrow-set eyes) is reported as 42 # embryonic stages according to Nieuwkoop and Faber (NF) and the “Onset (NF)” value (Xenopus embryos; [4]) is reported as 42 NF.

For `CC1(C)CCC2=C(O1)c1ccccc1C(=O)C2=O` [beta-Lapachone], the “Lethality (NF)” value (Xenopus embryos; [5]) was 32 NF.

With `C[C@H](NC(=O)Cc1cc(F)cc(F)c1)C(=O)N[C@H]1N=C(c2ccccc2)c2ccccc2N(C)C1=O` [compound E] the “edema or other phenotype in compound-treated Xenopus embryos/tadpoles (in words)” value (Xenopus embryos; 20 μM, 1% DMSO, treatment from stage 31) was “potently induces edemas”.

In the case of `C[C@]12CC[C@H](O)CC1=CC[C@@H]1[C@@H]2CC[C@]2(C)C(=O)CC[C@@H]12` [trans-Dehydroandrosterone, 5-Androsten-3beta.ol-17-one], the “Onset (NF)” value (Xenopus embryos; [6]) is reported as 41/42.

For Dequalinium analog, C-14 linker, the “Lethality (NF)” value (Xenopus embryos; [5]) was 32 NF.

In the case of Ivermectin, the “Lethality (NF)” value (Xenopus embryos; [2]) is reported as 41/42.

With R(-)-Propylnorapomorphine hydrochloride the “Onset (NF)” value (Xenopus embryos; [7]) was 33/34.
